Data: the NIST ThermoML archive (doi:10.1016/j.jct.2010.10.009)
Numbers after ± are expanded uncertainties.

Settings: 298.15 K; Crystal; Vacuum Sublimation Drop (Calvet Microcalorimeter)

SMILES: c1ccc2c(c1)CCc1ccccc1C2 [1,2:4,5-dibenzocycloheptane]
- molar enthalpy of sublimation: 24.8 ± 0.956 kcal/mol
